In brackets after ≈: the same amount, converted by molar mass. Read-outs that look alike come from different tables or passages of the source.
Key:
[1] = system: Citrobacter Freundii GN346; test: Synergistic effect on MIC, microdilution transfer plate technique; format: cell-based
Proteus vulgaris GN76 [2] = test: as above; format: cell-based
[3] = system: Citrobacter Freundii GN346; test: Disc assay of synergy, inhibition zones; format: cell-based; conditions: for zone of inhibition at 100 µg/mL: Citrobacter freundii
Protocol: (§1) (B) The presence or absence of synergy is visually checked by the size difference in inhibitory zones observed when the test drug is disc-assayedon an agar plate of a detector microbe and on an agar plate of the detector containing cephaloridine or benzylpenicillin, respectively.
(§2) One loopful of the stock culture of a test organism is inoculated in heat infusion broth (5 ml/tube), and grown at 37° C. for 18 hours. The culture broth is diluted to a final concentration of about 10^5 cells/ml in nutrient agar with or without benzyl penicillin or cephaloridine, and plated in a Petri dish with a diameter of 9 cm, as shown below.
(§3) Using the above-prepared agar plates, antibiotic PS-5 (100 μg/ml), antibiotic OA-6129B2 (5,6-trans OA-6129B) (100 μg/ml), benzylpenicillin (1000 μg/ml) and cephaloridine (1000 μg/ml) are subjected to disc assay.

Enterobacter cloacac 45 = test: Disc assay of synergy, inhibition zones; format: cell-based
Protocol: as §1, §2, §3

Proteus vulgaris GN76 [4] = test: Disc assay of synergy, inhibition zones; format: cell-based; conditions: for zone of inhibition at 100 µg/mL: Proteus vulgaris
Protocol: as §1, §2, §3

Serratia marccscens T55 = test: Disc assay of synergy, inhibition zones; format: cell-based; conditions: for zone of inhibition at 100 µg/mL: Serratia
Protocol: as §1, §2, §3

Alcaligenes Faecolis A1 = test: MIC by agar dilution method; format: cell-based; conditions: Alcaligenes Faecolis A1; agar dilution, 37° C., 18 hours; read-out: MIC
Protocol: (§4) The MIC is measured by an agar dilution method based on the standard method of the Japanese Society of Chemotherapy (Japanese Society of Chemotherapy: The Revised Method of Determination of MIC Values, Chemotherapy 22, 1126-1128, […]). Specifically, the antibiotic is serially diluted with a 1/50 M phosphate buffer at a pH of 7.3 to prepare a twofold dilution series. One milliliter of each dilution and 9 ml of an agar medium (Heart Infusion Agar; a product of Difco Laboratories) are mixed and allowed to solidify in a Petri dish having a diameter of 9 cm. One loopful of the stock culture of the test microbe is inoculated in trypto-soy buillon (a product of Eiken Kagaku Co., Ltd.) and incubated at 37° C. for 18 hours. The resulting culture broth is diluted to a concentration of about 10^6 cells/ml with physiological saline and inoculated on the agar plate by means of a microplanter.

[5] = system: Bacillus subtillis ATCC 6633; test: MIC by agar dilution method; format: cell-based; conditions: ATCC6633; Bacillus subtillis ATCC 6633; agar dilution, 37° C., 18 hours; read-out: MIC
Protocol: as §4

[6] = system: Citrobacter Freundii GN346; test: MIC by agar dilution method; format: cell-based; conditions: 37° C., 18 hours
Protocol: as §4

Comamonas terrigena B996 = test: MIC by agar dilution method; format: cell-based; conditions: 37° C., 18 hours
Protocol: as §4

E. coli RGN823 = test: MIC by agar dilution method; format: cell-based; conditions: Escherichia coli, 37° C., 18 hours
Protocol: as §4

Ent. cloacae 45 = test: MIC by agar dilution method; format: cell-based; conditions: Enterobacter cloacae, 37° C., 18 hours
Protocol: as §4

Ent. sp. E8 = test: MIC by agar dilution method; format: cell-based; conditions: Ent. sp. E8; agar dilution, 37° C., 18 hours; read-out: MIC
Protocol: as §4

[7] = system: Enterobacter aerogenes E19; test: MIC by agar dilution method; format: cell-based; conditions: Klebsiella aerogenes, 37° C., 18 hours
Protocol: as §4

Escherichia coli K-12 = test: MIC by agar dilution method; format: cell-based; conditions: K12; Escherichia coli K-12; agar dilution, 37° C., 18 hours; read-out: MIC
Protocol: as §4

[8] = system: Klebsiella pneumoniae K13; test: MIC by agar dilution method; format: cell-based; conditions: 37° C., 18 hours
Protocol: as §4

P. rettgeri P7 = test: MIC by agar dilution method; format: cell-based; conditions: Providencia rettgeri; P. rettgeri P7; agar dilution, 37° C., 18 hours; read-out: MIC
Protocol: as §4

P. vulgaris GN76 = test: MIC by agar dilution method; format: cell-based; conditions: Proteus vulgaris, 37° C., 18 hours
Protocol: as §4

Proteus mirabilis P6 = test: MIC by agar dilution method; format: cell-based; conditions: Proteus mirabilis P6; agar dilution, 37° C., 18 hours; read-out: MIC
Protocol: as §4

Providencia sp. P8 = test: MIC by agar dilution method; format: cell-based; conditions: Providencia sp. P8; agar dilution, 37° C., 18 hours; read-out: MIC
Protocol: as §4

Ps. aeruginosa NCTC10490 = test: MIC by agar dilution method; format: cell-based; conditions: Pseudomonas aeruginosa, 37° C., 18 hours
Protocol: as §4

[9] = system: Pseudomonas aenginosa IFO3445; test: MIC by agar dilution method; format: cell-based; conditions: 37° C., 18 hours
Protocol: as §4

S. aureus Russell = test: MIC by agar dilution method; format: cell-based; conditions: Staphylococcus aureus; S. aureus Russell; agar dilution, 37° C., 18 hours; read-out: MIC
Protocol: as §4

S. aureus Smith = test: MIC by agar dilution method; format: cell-based; conditions: Staphylococcus aureus, 37° C., 18 hours
Protocol: as §4

S. epidermidis = test: MIC by agar dilution method; format: cell-based; conditions: Staphylococcus epidermidis, 37° C., 18 hours
Protocol: as §4

Sarcina lutea S19 = test: MIC by agar dilution method; format: cell-based; conditions: Micrococcus luteus, 37° C., 18 hours
Protocol: as §4

Ser. marcesceus T55 = test: MIC by agar dilution method; format: cell-based; conditions: 37° C., 18 hours
Protocol: as §4

Serratia marcesceus S18 = test: MIC by agar dilution method; format: cell-based; conditions: 37° C., 18 hours
Protocol: as §4

[10] = system: Staphylococcus aureus 209P; test: MIC by agar dilution method; format: cell-based; conditions: 37° C., 18 hours
Protocol: as §4

[11] = Stability (half life) in phosphate buffers of various pH; format: physicochemical; conditions: 28° C.
Protocol: By adding 2% sodium hydroxide or 10% hydrochloric acid, the pH of 0.05 M phosphate buffer is adjusted to 4, 5, 6, 7, 8 and 9, respectively, and distributed into test tubes in an amount of 3 ml. Concentrated solution of antibiotic OA-6129A (0.05 ml) is added to each test tube and allowed to stand in a thermostatic chamber of 28° C. The time course curve of the concentration decrease of antibiotic OA-6129A is drawn by spectrophotometric measurement at 300 nm, from which the half life of the antibiotic at the indicated pH is calculated. As a control, antibiotic PS-5, a carbapenem compound described in the above-cited reference is simultaneously tested.

[12] = plate: + CER, disc OA-6129B2, PS-5 100 μg/ml, CER, PCG 1000 μg/ml
[13] = plate: + PCG, disc OA-6129B2, PS-5 100 μg/ml, CER, PCG 1000 μg/ml
[14] = plate: + PCG, reduced to 5 μg/ml (final concentration), disc OA-6129B2, PS-5 100 μg/ml, CER, PCG 1000 μg/ml
[15] = plate: None, disc OA-6129B2, PS-5 100 μg/ml, CER, PCG 1000 μg/ml

Structure (SMILES): O=C(Cc1cccs1)N[C@@H]1C(=O)N2C(C(=O)[O-])=C(C[n+]3ccccc3)CS[C@H]12 [CER, Cephaloridine]
- MIC of CER in combination ([1]; with OA-6129A 1.56 μg/ml): 1250 µg/mL
- MIC of CER in combination ([1]; with OA-6129A 6.25 μg/ml): 313 µg/mL
- MIC of CER in combination ([1]; with OA-6129A 25 μg/ml): < 5 µg/mL
- MIC of CER in combination ([1]; with OA-6129A 50 μg/ml): < 5 µg/mL
- MIC (Proteus vulgaris GN76 [2]; Proteus vulgaris, GN76, alone, heart infusion broth, 10^5 cells/ml): 1250 µg/mL
- MIC of CER in combination (Proteus vulgaris GN76 [2]; with OA-6129A 1.56 μg/ml): 313 µg/mL
- MIC of CER in combination (Proteus vulgaris GN76 [2]; with OA-6129A 6.25 μg/ml): 39 µg/mL
- MIC of CER in combination (Proteus vulgaris GN76 [2]; with OA-6129A 25 μg/ml): < 5 µg/mL
- MIC of CER in combination (Proteus vulgaris GN76 [2]; with OA-6129A 50 μg/ml): < 5 µg/mL
- zone of inhibition at 100 µg/mL ([3]; GN346, read-out: diameter of inhibition zones): 0 mm
- diameter of inhibition zones [3, 12]: 0 mm
- diameter of inhibition zones [3, 13]: 0 mm
- zone of inhibition at 100 µg/mL (Enterobacter cloacac 45; Enterobacter, 45, read-out: diameter of inhibition zones): 0 mm
- diameter of inhibition zones (Enterobacter cloacac 45; [12]): 0 mm
- diameter of inhibition zones (Enterobacter cloacac 45; [13]): 0 mm
- zone of inhibition at 100 µg/mL (Proteus vulgaris GN76 [4]; GN76, read-out: diameter of inhibition zones): 0 mm
- diameter of inhibition zones (Proteus vulgaris GN76 [4]; [12]): 0 mm
- diameter of inhibition zones (Proteus vulgaris GN76 [4]; [13]): 0 mm
- zone of inhibition at 100 µg/mL (Serratia marccscens T55; T55, read-out: diameter of inhibition zones): 0 mm
- diameter of inhibition zones (Serratia marccscens T55; [12]): 0 mm
- diameter of inhibition zones (Serratia marccscens T55; [14]): 0 mm

Structure (SMILES): CC1(C)S[C@@H]2[C@H](NC(=O)Cc3ccccc3)C(=O)N2[C@H]1C(=O)O [PCG, benzylpenicillin]
- diameter of inhibition zones [3, 12]: 0 mm
- diameter of inhibition zones [3, 13]: 0 mm
- diameter of inhibition zones [3, 15]: 0 mm
- diameter of inhibition zones (Enterobacter cloacac 45; [12]): 0 mm
- diameter of inhibition zones (Enterobacter cloacac 45; [13]): 0 mm
- diameter of inhibition zones (Enterobacter cloacac 45; [15]): 0 mm
- diameter of inhibition zones (Proteus vulgaris GN76 [4]; [12]): 0 mm
- diameter of inhibition zones (Proteus vulgaris GN76 [4]; [13]): 0 mm
- diameter of inhibition zones (Proteus vulgaris GN76 [4]; [15]): 0 mm
- diameter of inhibition zones (Serratia marccscens T55; [12]): 0 mm
- diameter of inhibition zones (Serratia marccscens T55; [14]): tr.
- diameter of inhibition zones (Serratia marccscens T55; [15]): tr.

Structure (SMILES): CCC1C(=O)N2C(C(=O)O)=C(SCCNC(C)=O)CC12 (centres unmarked) [PS-5, reference compound]
- MIC (Alcaligenes Faecolis A1): 0.78 µg/mL (≈ 2.61 µM)
- MIC [5]: 0.1 µg/mL (≈ 0.335 µM)
- MIC [6]: 3.13 µg/mL (≈ 10.5 µM)
- MIC (Comamonas terrigena B996): 0.012 µg/mL (≈ 0.0402 µM)
- MIC (E. coli RGN823): 3.13 µg/mL (≈ 10.5 µM)
- MIC (Ent. cloacae 45): 3.13 µg/mL (≈ 10.5 µM)
- MIC (Ent. sp. E8): 3.13 µg/mL (≈ 10.5 µM)
- MIC [7]: 3.13 µg/mL (≈ 10.5 µM)
- MIC (Escherichia coli K-12): 1.56 µg/mL (≈ 5.23 µM)
- MIC [8]: 3.13 µg/mL (≈ 10.5 µM)
- MIC (P. rettgeri P7): 3.13 µg/mL (≈ 10.5 µM)
- MIC (P. vulgaris GN76): 6.25 µg/mL (≈ 20.9 µM)
- MIC (Proteus mirabilis P6): 6.25 µg/mL (≈ 20.9 µM)
- MIC (Providencia sp. P8): 3.13 µg/mL (≈ 10.5 µM)
- MIC (Ps. aeruginosa NCTC10490): 12.5 µg/mL (≈ 41.9 µM)
- MIC [9]: 12.5 µg/mL (≈ 41.9 µM)
- MIC (S. aureus Russell): 0.2 µg/mL (≈ 0.67 µM)
- MIC (S. aureus Smith): 0.2 µg/mL (≈ 0.67 µM)
- MIC (S. epidermidis): 0.2 µg/mL (≈ 0.67 µM)
- MIC (Sarcina lutea S19): 0.1 µg/mL (≈ 0.335 µM)
- MIC (Ser. marcesceus T55): 6.25 µg/mL (≈ 20.9 µM)
- MIC (Serratia marcesceus S18): 3.13 µg/mL (≈ 10.5 µM)
- MIC [10]: 0.024 µg/mL (≈ 0.0804 µM)
- zone of inhibition at 100 µg/mL ([3]; GN346, plate: None, disc OA-6129B2, PS-5 100 μg/ml, CER, PCG 1000 μg/ml, read-out: diameter of inhibition zones): 22.5 mm
- diameter of inhibition zones [3, 12]: 24.0 mm
- diameter of inhibition zones [3, 13]: 23.5 mm
- zone of inhibition at 100 µg/mL (Enterobacter cloacac 45; Enterobacter, 45, plate: None, disc OA-6129B2, PS-5 100 μg/ml, CER, PCG 1000 μg/ml, read-out: diameter of inhibition zones): 20 mm
- diameter of inhibition zones (Enterobacter cloacac 45; [12]): 22.5 mm
- diameter of inhibition zones (Enterobacter cloacac 45; [13]): 21.0 mm
- zone of inhibition at 100 µg/mL (Proteus vulgaris GN76 [4]; GN76, plate: None, disc OA-6129B2, PS-5 100 μg/ml, CER, PCG 1000 μg/ml, read-out: diameter of inhibition zones): 17.5 mm
- diameter of inhibition zones (Proteus vulgaris GN76 [4]; [12]): 23.5 mm
- diameter of inhibition zones (Proteus vulgaris GN76 [4]; [13]): 25.0 mm
- zone of inhibition at 100 µg/mL (Serratia marccscens T55; T55, plate: None, disc OA-6129B2, PS-5 100 μg/ml, CER, PCG 1000 μg/ml, read-out: diameter of inhibition zones): 23.5 mm
- diameter of inhibition zones (Serratia marccscens T55; [12]): 34.0 mm
- diameter of inhibition zones (Serratia marccscens T55; [14]): 24.0 mm
- half-life ([11]; pH 4, 0.05 M phosphate buffer): 0.2 h
- half-life ([11]; pH 5, 0.05 M phosphate buffer): 3.43 h
- half-life ([11]; pH 6, 0.05 M phosphate buffer): 13.2 h
- half-life ([11]; pH 7, 0.05 M phosphate buffer): 38.2 h
- half-life ([11]; pH 8, 0.05 M phosphate buffer): 78 h
- half-life ([11]; pH 9, 0.05 M phosphate buffer): 36.2 h
